The source of these data is patent US5795885A, “Method of inhibiting profileration of cells by administering an aminosterol compound” (priority 1995, dated 1998).

Each structure is given as a SMILES string.

In data set [1] the test system is PHA-stimulated human lymphocytes. The experiment in a line: inhibition of mitogen (PHA)-stimulated growth of human T-cells. In kind it is cell-based. The following applies: Homo sapiens, Lymphocyte; 10 μg/ml; read-out: inhibition of PHA-stimulated human lymphocytes (% control). An excerpt:
Results are tabulated below.

The subject of data set [2] is Human ovarian carcinoma SKOV3. Description: growth inhibition in vitro (Baker et al.). It is filed as cell-based. On the procedure:
As set forth in Table 7 below, all malignant tumors evaluated in tissue culture, endothelial cells and vascular smooth muscle cells were sensitive to inhibition. Thus, compound 1436 has application in the control of growth factor dependent proliferation of many types of tissue.
Using the assay described above, the anticancer effects of compound 1437 against several cancer lines was assessed.

A further data set has as its system fasting blood glucose. Description: fasting blood glucose in mice. It is filed as in vivo, Male CD-1 mice. Particulars: intravenous. How it is done:
To study the effect of steroid administrator or the NHE responsible for secretion of insulin, several of the aminosterols from shark liver were administered to fasting mice. Male CD-1 mice were assigned to one of four treatment groups. Whole blood glucose was tested using glucometer (Lifescan Glucometer II and One Touch test strips). Statistical analysis was via one-way analysis of variance (ANOVA) followed by subsequent Bonferonni's t-test.

In another data set the test system is NHE1β. The following applies: cited from earlier work.
Data set [3] relates to L1210 lymphoblastic leukemia. Description: mouse model of L1210 leukemia. The following applies: by day 28. In kind it is in vivo, C57B mice.
Data set [4] deals with chick embryo vitelline capillaries. The experiment in a line: chick embryo vitelline capillary regression assay. It is filed as in vivo. The arrangement: key to vitelline capillary regression: +: Vascular reactivity; 0: No vascular reactivity; +/-: Equivocal reactivity. Particulars: for vitelline capillary regression: 60 minutes. On the procedure:
Using the chick embryo vitelline capillaries assay, compounds were tested for their ability to induce capillary regression. Each compound was applied in 0.1 ml of 15% Ficol 400 and PBS onto the embryo, and vascular regression was assessed after 60 minutes.
The 3-day chick embryo consists of an embryonic disc from which numerous vessels emerge and return, forming a "figure 8"-shaped structure--the embryo in the center with vascular loops extending outward over both poles. […] Following a lag period of around 15 minutes, the constriction of continuity between capillary and secondary vessels, generally on the "venous" side, was observed. Continued pulsatile blood flow progressed, resulting in a "swelling" of the blind tube, followed by a pinching off of the remaining connection and formation of an enclosed vascular sac resembling a "blood island." This process progressed until only the largest vessels remained intact.

The subject of a further data set is B16 melanoma. The experiment in a line: B16 melanoma growth in C57B mice. In kind it is in vivo, mouse. Particulars: subcutaneous administration (FIG. 6). On the procedure:
The growth of B16 melanoma in C57B mice is dependent upon neovascularization.
Using the growth of B16 melanoma cells in C57B mice, a recognized model for the evaluation of inhibitors of angiogenesis on the growth of cancers, the effects of subcutaneous, intraperitoneal and oral administration of squalamine were evaluated.
Based on the idea that tumor growth involves both the clonal expansion of a malignant cell along with the development of a supporting vascular supply, a combination of compound 1436 with squalamine was tested to determine whether it would achieve a synergistic effect on solid tumor growth. This concept was evaluated in the B16 melanoma model.
Animals were implanted with B16 melanoma followed by treatment with compound 1436 or 1256 administered in a combined schedule or separately. […] Thus, a combination of these two compounds achieves a therapeutic benefit in tumors dependent on neovascularization that may prevent metastatic spread.

In data set [5] the test system is stage 59-60 Xenopus tadpoles.
Another data set can be described thus: mouse IV PK study, HPLC. Particulars: in vivo. On the procedure:
To assess clearance, a mouse IV PK study was performed for compound 319 and squalamine. The compound was administered i.v. and blood samples were taken every 10 minutes. The concentration of the administered steroid was determined by HPLC analysis.

Another data set has as its system human melanoma. The experiment in a line: human melanoma growth time course and cell death (Baker et al.). It is filed as cell-based.

On to `CC(C)C(CO)(CC[C@@H](C)[C@H]1CC[C@H]2[C@@H]3[C@H](O)C[C@H]4C[C@@H](NCCCNCCCCN)CC[C@]4(C)[C@H]3CC[C@]12C)OS(=O)(=O)O` (single isomer, unassigned) [Compound 1437], for which the inhibition (usually the drop in the measured response relative to a control, in per cent) at 10 µg/mL in [1] came out at 10%. The anticancer activity result in [2] was “found to exhibit anticancer activity”. The hyperglycemia result in the data set with fasting blood glucose was “caused hyperglycemia in mice”.
Turning to `N=C(N)NC(=O)c1nc(Cl)c(N)nc1N` [Amiloride, amiloride], in the data set on NHE1β, the “inhibition of NHE1β” value is listed as “inhibited by high concentrations”.
With `N.N.[Cl][Pt][Cl]` [Cisplatin, cisplatin, reference compound], the anemia entry in data set [3] is recorded as “profound anemia”.
Take `C[C@H](CCC(=O)O)[C@H]1CC[C@H]2[C@@H]3CC[C@H]4C[C@@H](NCCCNCCCCN)CC[C@]4(C)[C@H]3CC[C@]12C` [Compound 319]: the vitelline capillary regression result in data set [4] (0.001 μg applied) was “+/-”; in [4] (0.01 μg applied) it was “+”; in data set [4] (0.1 μg applied), “+”; in [4] (1 μg applied) it was “+”; in data set [4] (10 μg applied), “+”. Further, the “activity in vitelline capillary regression assay (in words)” value in data set [4] (in vivo) is “especially active”. Further, in the data set with B16 melanoma, the “control of B16 melanoma” value is reported as “control of B16 in C57B mice to an extent almost comparable to squalamine”. Moreover, the “tadpole tail capillary occlusion” value in data set [5] (squalamine at 10 μg/ml) is “common vascular occlusive effect”. Further, the “pharmacokinetic clearance compared with squalamine” value in “mouse IV PK study, HPLC” is “more rapid pharmacokinetic clearance than squalamine”.
Turning to `CC(C)CCC[C@@H](C)[C@H]1CC[C@H]2[C@@H]3CC[C@H]4C[C@@H](NCCCNCCCCNCCCN)CC[C@]4(C)[C@H]3CC[C@]12C` [Compound 353], in the data set with human melanoma, the apoptotic cell death entry was “apoptotic cell death has been induced”. The “effect on growth of melanoma (time course)” value with human melanoma (FIG. 17A) was “most pronounced over 48 hours, with less of an effect noted within the first 12 hours of incubation”. In [4] (1 μg applied), the vitelline capillary regression entry is “+/-”. The “effect on chick embryo vitelline capillaries (in words)” value in data set [4] (in vivo) is recorded as “no effect on the chick embryo capillary bed”. In addition, the “tadpole response similar to compound 1436” value in data set [5] (tadpole assay) is given as “produce effects like those produced by compound 1436”.
